Measured values from patent publication US12673041B2, “4-aminobut-2-enamide derivatives and salt thereof” (TAIHO PHARMACEUTICAL CO., LTD., priority 2019, dated 2026).
Like-named read-outs stand apart in the source and are kept apart here.

Experiments:
[1] = target: T1, GMPPNP-bound KRAS G12C protein and cRAF RAS-binding domain (cRAF-RBD) (Homo sapiens, UniProt P01116, G12C); assay: Inhibitory activity on interaction between KRAS G12C and cRAF (Alpha technology); assay type: biochemical; settings: GMPPNP-bound KRAS G12C incubated with compound at 25° C. for 1 hour, then cRAF-RBD, Alpha signal; read-out: IC50
T1 construct: made in house; host or cells: E. coli
T1 sequence (P01116 with tags, fused parts or gaps isoform P01116-2 G12C): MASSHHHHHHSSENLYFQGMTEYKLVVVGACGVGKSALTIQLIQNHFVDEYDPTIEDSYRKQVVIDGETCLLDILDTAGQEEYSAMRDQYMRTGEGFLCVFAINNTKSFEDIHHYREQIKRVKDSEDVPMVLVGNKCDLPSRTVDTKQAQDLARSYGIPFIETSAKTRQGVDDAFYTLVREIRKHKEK
Procedure, shortened: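 GMPPNP-loaded His-KRAS G12C (aa 1-169) preincubated 1 h at 25 °C with compound (pH 7.5 Tris, 1 mM MgCl2, TCEP, Tween 20), then cRAF-RBD (aa 50-132) and Alpha reagents added for 1.5 h at RT. Inhibition scaled between DMSO (0%) and GDP-bound KRAS (100%); IC50 by curve fitting.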

[2] = target: T2, activated KRAS in MIA PaCa-2 (Homo sapiens, UniProt P01116, G12C); assay: Amount of activated KRAS on KRAS-G12C mutant cell line MIA PaCa-2 (Ras GTPase Chemi ELISA); assay type: cell-based; settings: for IC50: 1 hour with compound
T2 construct: host or cells: MIA PaCa-2
T2 sequence (P01116 1-188 isoform P01116-2 G12C): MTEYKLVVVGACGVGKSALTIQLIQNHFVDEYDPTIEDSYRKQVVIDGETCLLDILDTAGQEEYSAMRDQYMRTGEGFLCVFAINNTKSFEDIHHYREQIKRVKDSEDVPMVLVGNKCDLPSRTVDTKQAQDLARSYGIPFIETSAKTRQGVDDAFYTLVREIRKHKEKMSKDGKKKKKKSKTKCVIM
Procedure: NCI-H358 [H358, H358] (ATCC® CRL5807™), which is a KRAS-G12C mutant human lung cancer cell line, and MIA PaCa-2 (ATCC® CRL-1420™), which is a KRAS-G12C mutant human pancreas cancer cell line, were suspended in a 10% fetal bovine serum-containing RPMI1640 medium (manufactured by Thermo Fischer SCIENTIFIC), respectively. The cell suspension was seeded into a cell culture plate and cultured in an incubator containing 5% CO2 gas at 37° C. for 1 day. The lyophilized recombinant human EGF protein (R&D systems, Cat #: 236-EG-200) was dissolved in PBS to make 0.5 mg/ml solution. The EGF solution in PBS was diluted by 0.4% with the medium used for suspending cells and added to each cell-culture plate to give an EGF final concentration of 100 ng/ml, followed by leaving to stand at ambient temperature for 5 minutes. Then, the compounds obtained in the “Preparation of Compounds” section were used as test compounds and were dissolved in DMSO, and each test compound was diluted with DMSO to give a concentration 200 times the final concentration. The solution of the test compound in DMSO was diluted with the medium used for suspending cells and added to each well of the cell-culture plate to give a DMSO final concentration of 0.5%, followed by culture in an incubator containing 5% CO2 gas at 37° C. for another 1 hour. The amount of activated KRAS after 1 hour culture in the presence of the compound was measured using Ras GTPase Chemi ELISA Kit (manufactured by Active Motif). The ratio of KRAS activity was calculated from the following equation, and the concentration of the test compound at which activity was suppressed to 50% (IC50 (μM)) was determined. […] The Ratio of KRAS activity to control (%)=(T−BG)/(C−BG)×100 • T: the emission intensity in a well into which a test compound was added. • C: the emission intensity in a well into which a test compound was not added. • BG: the emission intensity in a well into which neither a test compound nor a cell suspension was added.

MIA PaCa-2 cells = assay: Growth inhibition activity on KRAS-G12C mutant cell line (MIA PaCa-2); assay type: cell-based; settings: Homo sapiens, 72 h; MIA PaCa-2, 3-day culture, CellTiter-Glo 3D
Procedure, shortened: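 KRAS-G12C human pancreatic MIA PaCa-2 cells in RPMI1640 + 10% FBS, seeded in U-bottom plates and grown 1 day, then exposed to compound (0.2% DMSO final) for 3 days at 37 °C, 5% CO2. Viability by CellTiter-Glo 3D luminescence; IC50 from inhibition relative to untreated wells.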

[3] = MIA PaCa-2, with EGF 100 ng/ml, read-out: IC50 MIA PaCa-2 with EGF
[4] = MIA PaCa-2, without EGF, read-out: IC50 MIA PaCa-2 without EGF

| Structure (SMILES) | IC50 [1] | KRAS inhibition activity under EGF treatment ([2]; MIA PaCa-2, EGF treatment) | IC50 [2, 3] | IC50 [2, 4] | IC50 (MIA PaCa-2 cells) |
| --- | --- | --- | --- | --- | --- |
| C=CC(=O)N1CCN(c2ncnc3c(F)c(-c4c(O)cccc4F)c(Cl)cc23)CC1 [ARS-1620, reference compound] | > 67 µM | attenuated by EGF treatment | 4.2 µM | 0.65 µM |  |
| CCc1nc2cc(-c3cccc(NC(=O)c4ccc(NC(=O)/C=C/CN[C@H]5CC[C@H](OC)CC5)c(C#N)c4)c3)c(C(F)(F)F)cc2n1C [Example 1, 3-cyano-N-(3-(2-ethyl-1-methyl-6-(trifluoromethyl)-1H-benzo[d]imidazol-5-yl)phenyl)-4-((E)-4-(((1r, 4r)-4-methoxycyclohexyl)amino)but-2-enamido)benzamide] | 0.18 µM |  | 1 µM | 0.78 µM |  |
| CO[C@H]1CC[C@H](NC/C=C/C(=O)Nc2ccc(C(=O)c3ccc4c(-c5cc6ncn(C)c6cc5C)cccn34)cc2C#N)CC1 [Example 4, (E)-N-(2-cyano-4-(8-(1,6-dimethyl-1H-benzo[d]imidazol-5-yl)indolizine-3-carbonyl)phenyl)-4-(((1r,4r)-4-methoxycyclohexyl)amino)but-2-enamide] | 0.023 µM |  | 0.44 µM | 0.3 µM | 0.14 µM |
